Experimental data as given in ChEMBL document CHEMBL1201862, “PubChem BioAssay data set” (2004).
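Each compound was tested at five concentrations against cells in 96-well plates for 48 hours. Here, GI50 denotes the concentration required for 50% inhibition of growth.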 The source made the active and inactive calls. Cut-off read from the data, not from the text of the source: active = GI50 up to about 1.1 µM and inactive = higher.

Key:
Test in all cases: growth of human tumour cells (NCI), 48 h
SN12C = tested on: SN12C
TK-10 = tested on: TK-10
HT-29 = tested on: HT-29
CAKI-1 = tested on: CAKI-1
SR = tested on: SR
SF-268 = tested on: SF-268
HCC 2998 = tested on: HCC 2998
M14 = tested on: M14
SK-OV-3 = tested on: SK-OV-3
OVCAR-8 = tested on: OVCAR-8
UACC-257 = tested on: UACC-257
NCI-H460 = tested on: NCI-H460
OVCAR-5 = tested on: OVCAR-5
IGROV-1 = tested on: IGROV-1
UO-31 = tested on: UO-31
RPMI-8226 = tested on: RPMI-8226
SK-MEL-28 = tested on: SK-MEL-28

Measured: GI50

CC(=O)C(CN(C)Cc1ccccc1)C(c1ccccc1)c1c(O)c2ccccc2oc1=O (centres undefined)
inactive: SN12C > 100 µM | TK-10 > 100 µM | HT-29 > 100 µM | CAKI-1 > 100 µM | SR > 100 µM | SF-268 > 100 µM | HCC 2998 > 100 µM | M14 > 100 µM | SK-OV-3 > 100 µM | OVCAR-8 > 100 µM | UACC-257 > 100 µM | NCI-H460 > 100 µM | OVCAR-5 > 100 µM | IGROV-1 > 100 µM | UO-31 16.6 µM | RPMI-8226 58.6 µM | SK-MEL-28 > 100 µM

CC1C[C@H](C)CC(C(O)CC2CC(=O)N(Cc3ccccc3)C(=O)C2)C1O (some centres undefined)
inactive: SN12C > 100 µM | TK-10 > 100 µM | HT-29 > 100 µM | CAKI-1 > 100 µM | SR > 100 µM | SF-268 > 100 µM | HCC 2998 > 100 µM | M14 > 100 µM | SK-OV-3 > 100 µM | OVCAR-8 > 100 µM | UACC-257 > 100 µM | NCI-H460 > 100 µM | OVCAR-5 > 100 µM | IGROV-1 > 100 µM | UO-31 > 100 µM | RPMI-8226 > 100 µM | SK-MEL-28 > 100 µM

COC(=O)[C@H](C)[C@H]1CC[C@@](C)([C@H]2CC3C(C)(C)[C@H]4CCC(C)=C[C@H]4C[C@@]3(C)O2)OO1 (some centres undefined)
inactive: SN12C 11.1 µM | TK-10 15.3 µM | HT-29 13.5 µM | CAKI-1 5.13 µM | SR 9.12 µM | SF-268 8.77 µM | HCC 2998 6.68 µM | M14 12.6 µM | SK-OV-3 30.5 µM | OVCAR-8 10.7 µM | UACC-257 12.1 µM | NCI-H460 2.05 µM | OVCAR-5 13.4 µM | IGROV-1 5.69 µM | UO-31 6.52 µM | RPMI-8226 2.92 µM | SK-MEL-28 14.6 µM

NC(=O)C12CCC1C1CCCCC12N1CCOCC1 (centres undefined)
inactive: SN12C > 100 µM | TK-10 > 100 µM | HT-29 > 100 µM | CAKI-1 > 100 µM | SR > 100 µM | SF-268 > 100 µM | HCC 2998 > 100 µM | M14 > 100 µM | SK-OV-3 > 100 µM | OVCAR-8 > 100 µM | NCI-H460 > 100 µM | OVCAR-5 > 100 µM | IGROV-1 > 100 µM | UO-31 > 100 µM | RPMI-8226 > 100 µM | SK-MEL-28 > 100 µM

C=C1CCC2C(C)(CO)C(O)CCC2(C)C1C/C=C1/CCOC1=O (centres undefined)
inactive: SN12C > 100 µM | TK-10 > 100 µM | HT-29 > 100 µM | CAKI-1 > 100 µM | SR > 100 µM | HCC 2998 > 100 µM | M14 > 100 µM | SK-OV-3 > 100 µM | OVCAR-8 > 100 µM | UACC-257 > 100 µM | NCI-H460 > 100 µM | OVCAR-5 > 100 µM | IGROV-1 > 100 µM | UO-31 > 100 µM | RPMI-8226 > 100 µM

COC(=O)C1Cc2c(n(C)c3ccccc23)C(c2ccccc2)N1 (centres undefined)
inactive: SN12C > 100 µM | TK-10 > 100 µM | HT-29 18.9 µM | CAKI-1 > 100 µM | SR 67.9 µM | SF-268 > 100 µM | HCC 2998 49.4 µM | M14 > 100 µM | SK-OV-3 > 100 µM | OVCAR-8 > 100 µM | UACC-257 15.2 µM | NCI-H460 60.5 µM | OVCAR-5 > 100 µM | IGROV-1 45.8 µM | UO-31 > 100 µM | RPMI-8226 63.7 µM | SK-MEL-28 > 100 µM
